Earlier results, collected in US9375525B2, “Modular extracorporeal systems and methods for treating blood-borne diseases” (Somerset Group Enterprises, Inc., priority 2012, dated 2016).
Where two headings read alike, the source gives them in different places.

Tests used:
pathogens = details: bactericidal or static
Listeria = details: carbonation volume of about 2, about 35° C., pressure up to about 350 MPa, about 300 seconds
S. aureus = details: basic conditions versus slightly acidic conditions

Row | Compound | activity (pathogens) | Issues with Respect to In vivo Toxicity or Side Effects (in vivo) | further results
1 | NCC[C@H](O)C(=O)N[C@@H]1C[C@H](N)[C@@H](O[C@H]2O[C@H](CN)[C@@H](O)[C@H](O)[C@H]2O)[C@H](O)[C@H]1O[C@H]1O[C@H](CO)[C@@H](O)[C@H](N)[C@H]1O [Amikacin] | bactericidal | Nephrotoxicity, ototoxicity | –
2 | O=C=O [CO2, Carbon dioxide] | – | – | inactivation of Listeria (Listeria): enhanced the inactivation
3 | O=C(O)c1cn(C2CC2)c2cc(N3CCNCC3)c(F)cc2c1=O [Ciprofloxalin] | bactericidal | – | –
4 | CCCCCCCCCC(=O)N[C@@H](Cc1c[nH]c2ccccc12)C(=O)N[C@H](CC(N)=O)C(=O)N[C@@H](CC(=O)O)C(=O)N[C@@H]1C(=O)NCC(=O)N[C@@H](CCCN)C(=O)N[C@@H](CC(=O)O)C(=O)N[C@H](C)C(=O)N[C@@H](CC(=O)O)C(=O)NCC(=O)N[C@H](CO)C(=O)N[C@@H]([C@H](C)CC(=O)O)C(=O)N[C@@H](CC(=O)c2ccccc2N)C(=O)O[C@@H]1C [Daptomycin] | bactericidal | – | –
5 | CN(C)c1cc(NC(=O)CNC(C)(C)C)c(O)c2c1C[C@H]1C[C@H]3[C@H](N(C)C)C(O)=C(C(N)=O)C(=O)[C@@]3(O)C(O)=C1C2=O [Tigecycline] | static | – | –
6 | NC[C@H]1O[C@H](O[C@H]2[C@H](O)[C@@H](O[C@H]3O[C@H](CO)[C@@H](O)[C@H](N)[C@H]3O)[C@H](N)C[C@@H]2N)[C@H](N)C[C@@H]1O [Tobramycin] | bactericidal | Nephrotoxicity, ototoxicity | –
7 | N[C@@H]1[C@H]2CN(c3nc4c(cc3F)c(=O)c(C(=O)O)cn4-c3ccc(F)cc3F)C[C@@H]12 [Trovafloxacin] | bactericidal | Histamine release, Idiosyncratic | –
8 | CN[C@H](CC(C)C)C(=O)N[C@H]1C(=O)N[C@@H](CC(N)=O)C(=O)N[C@H]2C(=O)N[C@H]3C(=O)N[C@H](C(=O)N[C@H](C(=O)O)c4cc(O)cc(O)c4-c4cc3ccc4O)[C@H](O)c3ccc(c(Cl)c3)Oc3cc2cc(c3O[C@@H]2O[C@H](CO)[C@@H](O)[C@H](O)[C@H]2O[C@H]2C[C@](C)(N)[C@H](O)[C@H](C)O2)Oc2ccc(cc2Cl)[C@H]1O [vancomycin] | – | – | killing S. aureus (S. aureus): under basic conditions better than under slightly acidic conditions
9 | Colistin | bactericidal | – | Issues with Respect to In vivo Toxicity or Side Effects (in vivo use): Only used as last resort antibiotics
10 | Gentamycin | bactericidal | – | Issues with Respect to In vivo Toxicity or Side Effects (in vivo use): Nephrotoxicity, ototoxicity
11 | Polymixin B | bactericidal | due to renal and neurotoxicity | –
